Test results taken from ChEMBL document CHEMBL5724806, “Unraveling interindividual differences and functional consequences of gut microbial metabolism of immunosuppressants” (2024).

Key:
Format in all cases: ADME
[1] = (§1) The drug is tested on Streptococcus mitis strain: DSM12643 for biotransformation under anaerobic condition. The drug concentrations were measured over 6 timepoints collected between 0 and 12 hours of incubation by liquid-chromatography-coupled mass spectrometry (LC–MS); design: dose 5 uM, timepoint 0, 1.5, 3, 6, 9, 12 hours; conditions: 5 µM
[2] = as §1, with “the gut metagenome community of T-03 with ENA study accession number: PRJEB31790” for “Streptococcus mitis strain: DSM12643”, “7” for “6”; design: dose 5 uM, timepoint 0, 0.75, 1.5, 3, 6, 9, 12 hours; conditions: 5 µM
[3] = The drug is tested on Clostridium bolteae strain: DSM15670 for biotransformation under anaerobic condition. The drug concentrations were measured over 6 timepoints collected between 0 and 12 hours of incubation by liquid-chromatography-coupled mass spectrometry (LC–MS); design: dose 5 uM, timepoint 0, 1.5, 3, 6, 9, 12 hours; conditions: enterocloster bolteae, 5 µM
[4] = as §1, with “the gut metagenome community of T-02 with ENA study accession number: PRJEB31790” for “Streptococcus mitis strain: DSM12643”, “7” for “6”; design: dose 5 uM, timepoint 0, 0.75, 1.5, 3, 6, 9, 12 hours; conditions: 5 µM
[5] = (§2) The drug is tested on Escherichia coli strain: DSM27469 for biotransformation under microaerobic condition. The drug concentrations were measured over 6 timepoints collected between 0 and 12 hours of incubation by liquid-chromatography-coupled mass spectrometry (LC–MS); design: dose 5 uM, timepoint 0, 1.5, 3, 6, 9, 12 hours; conditions: 5 µM
[6] = The drug is tested on Streptococcus anginosus strain: DSM20563 for biotransformation under microaerobic condition. The drug concentrations were measured over 6 timepoints collected between 0 and 12 hours of incubation by liquid-chromatography-coupled mass spectrometry (LC–MS); design: dose 5 uM, timepoint 0, 1.5, 3, 6, 9, 12 hours; conditions: 5 µM
[7] = as §1, with “the gut metagenome community of A-01 with ENA study accession number: PRJEB31790” for “Streptococcus mitis strain: DSM12643”, “7” for “6”; design: dose 5 uM, timepoint 0, 0.75, 1.5, 3, 6, 9, 12 hours; conditions: 5 µM
[8] = The drug is tested on Actinomyces naeslundi strain: DSM43013 for biotransformation under anaerobic condition. The drug concentrations were measured over 6 timepoints collected between 0 and 12 hours of incubation by liquid-chromatography-coupled mass spectrometry (LC–MS); design: dose 5 uM, timepoint 0, 1.5, 3, 6, 9, 12 hours; conditions: actinomyces naeslundii, 5 µM
[9] = The drug is tested on Lactobacillus ruminis strain: ATCC25644 for biotransformation under microaerobic condition. The drug concentrations were measured over 6 timepoints collected between 0 and 12 hours of incubation by liquid-chromatography-coupled mass spectrometry (LC–MS); design: dose 5 uM, timepoint 0, 1.5, 3, 6, 9, 12 hours; conditions: ligilactobacillus ruminis, 5 µM
[10] = as §2, with “the gut metagenome community of T-01 with ENA study accession number: PRJEB31790” for “Escherichia coli strain: DSM27469”, “7” for “6”; design: dose 5 uM, timepoint 0, 0.75, 1.5, 3, 6, 9, 12 hours; conditions: 5 µM
[11] = The drug is tested on Lactobacillus reuteri strain: DSM20016 for biotransformation under microaerobic condition. The drug concentrations were measured over 6 timepoints collected between 0 and 12 hours of incubation by liquid-chromatography-coupled mass spectrometry (LC–MS); design: dose 5 uM, timepoint 0, 1.5, 3, 6, 9, 12 hours; conditions: limosilactobacillus reuteri, 5 µM

Bacterial Biotransformation [1]: Compound metabolized | Bacterial Biotransformation [2]: Compound metabolized | Bacterial Biotransformation [3]: Compound NOT metabolized | Bacterial Biotransformation [4]: Compound metabolized | Bacterial Biotransformation [5]: Compound metabolized | Bacterial Biotransformation [6]: Compound metabolized | Bacterial Biotransformation [7]: Compound metabolized | Bacterial Biotransformation [8]: Compound metabolized | Bacterial Biotransformation [9]: Compound metabolized | Bacterial Biotransformation [10]: Compound metabolized | Bacterial Biotransformation [11]: Compound NOT metabolized
SMILES: COc1c(C)c2c(c(O)c1C/C=C(\C)CCC(=O)OCCN1CCOCC1)C(=O)OC2 [MYCOPHENOLATE MOFETIL]
